Measured values as given in patent US12239125B2, “Compositions for organ preservation” (SigmaDrugs Kutató Korlátolt Felelösségü Társaság, priority 2016, dated 2025).
Counter-ions that a name gives are not always drawn.

What was measured:
[1] = system: mitochondrial functions (liver); settings: administered to rats or used in the preservation liquid of isolated liver; cited from earlier work
autotransplanted kidney = assay: Rat model of kidney isograft autotransplantation (ATx) after cold storage in preservation solution; assay type: in vivo; settings: for Kidney function / serum AST levels / serum creatinine levels: vs preservation solution without S1R agonist; for NGAL levels: compared to Custodiol; for Tubular lumen areas (tubular dilatation): vs standard preservation solution, PAS-stained sections
Method: The institutional committee on animal welfare approved all experiments. Experiments were performed on Male Wistar rats weighing 205±15 g (Toxi-Coop Toxicological Research Center, Dunakeszi, Hungary). Animals were housed in a temperature-controlled (22±1° C.) room with alternating light and dark cycles and had free access to standard rat chow and water. Male Wistar rats (n=8/group) were anesthetized with isoflurane (3% vol/vol) mixed with synthetic air (1 L/min) before surgery and placed on a temperature-controlled table to maintain core body temperature. Left kidneys were perfused with cold Custodiol perfusion solution (Na^+: 15 mmol/L; K^+: 9 mmol/L; Mg^2+: 4 mmol/L; Ca^2+: 0.015 mmol/L; histidine: 198 mmol/L; tryptophan: 2 mmol/L; ketoglutarate: 1 mmol/L; mannitol: 30 mmol/L) (Franz Kohler Chemie GMBH, Bensheim, Germany), then removed from the animal: kidneys were placed into a container for 2 hours filled with either (i) cold Custodiol perfusion solution (ATx) or (ii) cold Custodiol perfusion solution containing 0.003 mg/mL FLU (ATx FLU) or (iii) cold Custodiol perfusion solution containing 0.003 mg/mL SA4503 (ATx SA). After 2 hours kidneys were placed back into the rats and end-to-end anastomoses of the renal artery, vein and ureter were performed. […] Total warm ischemia time was 35 min in all animals. Sham operated animals served as controls. After 24 hours of reperfusion, blood samples were collected from the abdominal aorta, the remnant kidneys were harvested, instantly snap-frozen in liquid nitrogen, and stored at -80° C. or fixed in buffered 8% formalin for further processing. The experimental design of the autotransplantation is shown in FIG. 9 Metabolic (glucose, fructosamine, total and HDL-cholesterol, triglycerides) and renal functional parameters from rat sera (sodium, potassium, creatinine, blood urea nitrogen (BUN), aspartate transaminase (AST)) were determined with commercially available kits on a Hitachi 912 photometric chemistry analyzer. Kidneys were fixed in 8% formalin, embedded into paraffin and 5 μm sections were stained with periodic acid-Schiff (PAS) to assess tubular injury. Images were taken with Panoramic Viewer (3[…] Ltd., Budapest, Hungary). Tubular luminal areas were measured in three fields of magnification ×200 per rat. The analysis was performed in a double-blinded fashion with computer-assisted morphometry using Adobe Photoshop CS6 (Adobe Systems Corporation, San José, Calif., USA) and Image J (National Institute of Health, Bethesda, MD, USA) softwares on a Zeiss Axiolmager A1 light-microscope (Carl Zeiss A G, Jena, Germany). Formalin-fixed kidney samples were embedded into paraffin. 5 μm thick sections were mounted on Superfrost slides (Thermo Shandon, Runcorn, UK) and were manually deparaffinized. Assay was performed using the Apoptag® Peroxidase In situ Apoptosis Detection Kit (Millipore, Billerica, MA, USA). Briefly, samples were pretreated with Proteinase K for 15 min. Following repeated washing steps endogenous peroxidase activity was blocked by 3% H2O2 in methanol for 5 min at room temperature. Next, slides were incubated in reaction buffer containing 30% TdT enzyme for 1 hour at room temperature after which Stop buffer was added. Slides were incubated with anti-Dioxigenin Conjugate for 30 min at room temperature. Slides were developed using DAB peroxidase substrate. The areas of TUNEL-positive apoptotic nuclei were measured in three fields of magnification ×200 per rat. The analysis was performed using Adobe Photoshop CS6 (Adobe Systems Corporation, San José, Calif., USA) and Image J (National Institute of Health, Bethesda, MD, USA) softwares on a Zeiss Axiolmager A1 light-microscope (Carl Zeiss A G, Jena, Germany). Formalin-fixed kidney samples were embedded into paraffin. One to two micron thick sections were mounted on Superfrost slides (Thermo Shandon, Runcorn, UK) and were manually deparaffinized. Endogenous peroxidase activity was blocked by 3% H2O2 in methanol for 20 min at room temperature. […]

isolated kidney = assay: Rat model of kidney cold ischemia (cold perfusion and storage of isolated kidney); settings: for reducing, delaying or preventing functional and/or structural damage of a stored organ or tissue (comparison of the three agonists): fluvoxamine, SA-4503 and PRE-84 compared; for mRNA levels of Bcl-2 / mRNA levels of BAX: stored kidneys; for mRNA levels of BAX: difference not statistically significant
Method: Male Wistar rats were anesthetized with isoflurane (3% vol/vol) mixed with synthetic air (1 L/min) before surgery and placed on a temperature-controlled table to maintain core body temperature. Kidneys (n=6/group) were washed through the renal arteries with 5 ml cold solution, then removed from the animal and placed into a container filled with the same solution for either 2 or 3 hours. […] 3h CP); (viii) Custodiol containing 0.003 mg/mL FLU, 3 hours of cold perfusion (Cust. […] After cold ischemia kidneys were immediately snap-frozen in liquid nitrogen and stored at −80° C. or fixed in buffered 8% formalin for further processing.
Kidneys were fixed in 8% formalin, embedded into paraffin and 5 μm sections were stained with periodic acid-Schiff (PAS) to assess tubular injury. Images were taken with Panoramic Viewer (3[…] Ltd., Budapest, Hungary). Tubular luminal areas were measured in three fields of magnification ×200 per rat. The analysis was performed in a double-blinded fashion with computer-assisted morphometry using Adobe Photoshop CS6 (Adobe Systems Corporation, San José, Calif., USA) and Image J (National Institute of Health, Bethesda, MD, USA) softwares on a Zeiss Axiolmager A1 light-microscope (Carl Zeiss A G, Jena, Germany).
Total RNA was isolated from kidneys with GeneAid Total RNA Mini Kit (Geneaid Biotech Ltd., New Taipei City, Taiwan). 500 ng RNA was reverse-transcribed using Maxima First Strand cDNA Synthesis Kit for RT-qPCR (Thermo Scientific, Waltham, MA, USA) to generate first-strand cDNA. mRNA expressions of Ngal (Lcn2), Kim1, Mcp1, IL-1α (Il1α), IL-6 (Il6), IL-10 (Il10), TNF-α (Tnf), HO-1 (Hmox1), Bax, Bcl-2 (Bcl2), 18S ribosomal RNA (Rn18s) and β-actin (Actb) were determined with real-time RT-PCR using Light Cycler 480 SYBR Green 1 Master enzyme mix on a Light Cycler system (Roche Diagnostics, Mannheim, Germany). The reaction mix contained 10 pmol/μl of each PCR primer (Table 1; Integrated DNA Technologies Inc., Coralville, IA, USA), 10 μl of Light Cycler 480 SYBR Green 1 Master enzyme mix and 1 μl of cDNA sample. The conditions of the PCRs were as follows: 1 cycle at 95° C. for 5 minutes, followed by 70 cycles under the appropriate PCR conditions. Quantification was performed with the second-derivative method by monitoring the cycle number at which the fluorescent sign could be distinguished from the background. Results were analyzed with Light Cycler 480 software version 1.5.0.39 (Roche Diagnostics, Mannheim, Germany). The mRNA expression of each gene was determined by comparison to 18S ribosomal RNA as housekeeping gene from the same sample.
All reagents for Western blotting were purchased from Bio-Rad Laboratories, Hercules, CA, USA unless stated otherwise. Tissue samples were lysed in buffer containing leupeptin, aprotinin, Triton X-100, Tris-HCl, Ethylene glycol-bis (2-aminoethylether),N,N,N′,N′-tetraacetic-acid, NaF, Phenylmethylsulphonylfluoride and Na-orthovanadate (each substance were purchased from Sigma-Aldrich Co., St. Louis, MO, USA). Protein concentrations were determined using Bradford assay. […] Pre-stained protein mixture was used as marker of molecular mass. The separated proteins were transferred into nitrocellulose membranes. Non-specific binding sites were blocked in 5% non-fat dry milk containing blot solution. Membranes were incubated with monoclonal antibody specific to rat cleaved caspase-3 (Asp175) (Cell Signaling Technology, Danvers, MA, USA) diluted to 1:1000. Blots were washed and incubated (1 hour, room temperature) with peroxidase-conjugated goat anti-rabbit IgG secondary antibody (Cell Signaling Technology, Danvers, MA, USA) diluted to 1:4000. […] Bands were analyzed with Quantity One software version 4.6.9. Protein abundance was represented as Integrated Optical Density (IOD)/Ponceau S compared to controls.
Data were analyzed using GraphPad Prism software (GraphPad Software Inc., La Jolla, CA, USA).

PCP receptors = settings: cited from earlier work
[2] = 2 h cold storage in Custodiol with 0.003 mg/mL compound, ATx, 24 hours of reperfusion
[3] = stored and subsequently transplanted kidney
[4] = transplantation after storage, vs vehicle
[5] = isolated kidneys stored in Custodiol, vs vehicle

COc1ccc(CN2CCN(Cc3ccccc3)CC2)c(O)c1OC [BHDP, N-benzyl-N′-(2-hydroxy-3,4-dimethoxybenzyl)-piperazine]
mitochondrial functions [1]: protected mitochondrial functions

COCCCC/C(=N\OCCN)c1ccc(C(F)(F)F)cc1 [fluvoxamine, fluvoxamine maleate]
Kidney function (autotransplanted kidney; [2]): substantially improved | serum AST levels (autotransplanted kidney; [2]): lower | serum creatinine levels (autotransplanted kidney; [2]): lower | Levels of MCP-1 (autotransplanted kidney; autotransplanted kidneys, vs vehicle): significantly less elevated | mRNA levels of inflammatory cytokines (IL10, IL-1α, TNFα) (autotransplanted kidney; [3]): decreased | protein levels of inflammatory cytokines (IL10, IL-1α, TNFα) (autotransplanted kidney; [3]): decreased | NGAL levels (autotransplanted kidney; transplantation after storage): significantly decreased | histological damage on PAS-stained kidney sections (autotransplanted kidney; transplantation after storage, vs conventional preservation fluid (vehicle)): milder histological damage | Tubular lumen areas (tubular dilatation) (autotransplanted kidney; transplantation after storage): significantly smaller | Tubular lumen areas (tubular dilatation) (autotransplanted kidney; transplantation after storage, listed as FLU): less dilated | BAX expression (mRNA) (autotransplanted kidney; [4]): significant decrease | KIM-1 expression levels (autotransplanted kidney; [4]): significantly lower expression | increase of HO-1 expression (autotransplanted kidney; [4]): prevented | mRNA levels of Bcl-2 (autotransplanted kidney; [4]): significant increase | apoptotic cells in TUNEL assay (autotransplanted kidney; transplantation after storage, vs vehicle treated kidneys): significantly less apoptotic cells | structural damage after prolonged cold ischemia (isolated kidney; 3, 8 or 24 hours of cold ischemia with Flu vs 2 hours ischemia without Flu): less pronounced | increase of tubular damage (tubular lumen areas) from 2 to 3 hours of cold storage (isolated kidney; Custodiol, 2 and 3 hours of cold storage): inhibited this increase of damage | less tissue damage by histologic assay (isolated kidney; after 1.5 fold longer or even 10 fold longer preservation time than organs in same solution without fluvoxamine): 25% | MCP-1 levels (isolated kidney; after storage, vs conventional Custodiol): less elevated | Tubular lumen dilatation (isolated kidney; cold storage without reperfusion, compound 0.003 mg/mL in preservation solution vs solution alone): less dilated | reducing, delaying or preventing functional and/or structural damage of a stored organ or tissue (comparison of the three agonists) (isolated kidney): surprisingly more effective than SA 4503 | reducing, delaying or preventing functional and/or structural damage of a stored organ or tissue (comparison of the three agonists) (isolated kidney; listed as Fluvoxamine): most successful of the three compounds | KIM-1 levels (isolated kidney; [5]): decreased dramatically | kidney structure on PAS-stained sections (isolated kidney; perfused with FLU, harvested after 2 hours of cold ischemia): better preserved | KIM-1 levels (isolated kidney; saline): milder, though a tendency of decrease is noticed | NGAL mRNA expression (isolated kidney; saline): Efficacy of fluvoxamine in saline was also demonstrated | mRNA levels of Bcl-2 (isolated kidney): markedly increased | mRNA levels of BAX (isolated kidney): decreased

CCCN(CCC)CCc1ccc(OC)c(OCCc2ccccc2)c1 [NE100, N-dipropyl-2-[4-methoxy-3-(2-phenylethoxy)-phenyl]-ethylamine monohydrochloride]
KIM-1 levels: effect of adding S1R antagonist to fluvoxamine (isolated kidney): diminished the protective effect of fluvoxamine

O=C(OCCN1CCOCC1)C1(c2ccccc2)CCCCC1 [PRE-084, 2-morpholin-4-dylethyl 1-phenylcyclohexane-1-carboxylate]
IC50 (PCP receptors): > 100 µM | KIM-1 levels (isolated kidney; [5]): inhibited the increase of KIM-1 | mRNA levels of BAX (isolated kidney): decreased

COc1ccc(CCN2CCN(CCCc3ccccc3)CC2)cc1OC [SA 4503, 1-[2-(3,4-Dimethoxyphenyl)ethyl]-4-(3-phenylpropyl)piperazine]
BUN (Blood urea nitrogen) levels (autotransplanted kidney; [2]): significantly decreased | Kidney function (autotransplanted kidney; [2]): substantially improved | serum AST levels (autotransplanted kidney; [2]): lower | serum creatinine levels (autotransplanted kidney; [2]): lower | NGAL levels (autotransplanted kidney; transplantation after storage): significantly decreased | Tubular lumen areas (tubular dilatation) (autotransplanted kidney; transplantation after storage): significantly smaller | KIM-1 expression levels (autotransplanted kidney; [4]): significantly lower expression | KIM-1 levels (isolated kidney; [5]): inhibited the increase of KIM-1 | mRNA levels of Bcl-2 (isolated kidney): no such effect | mRNA levels of BAX (isolated kidney): decreased
